In US7935722B2 (Eli Lilly and Company, priority 2005, dated 2011):
Like-named read-outs stand apart in the source and are kept apart here.

How the values were obtained:
[1] = biological target: T1, human AR (androgen receptor) (Homo sapiens, UniProt P10275); test: Steroid hormone nuclear receptor binding assay, AR binding
T1 construct: expressed in transfected cells; host or cells: 293 cells (293-AR lysate)
T1 sequence (P10275 1-920): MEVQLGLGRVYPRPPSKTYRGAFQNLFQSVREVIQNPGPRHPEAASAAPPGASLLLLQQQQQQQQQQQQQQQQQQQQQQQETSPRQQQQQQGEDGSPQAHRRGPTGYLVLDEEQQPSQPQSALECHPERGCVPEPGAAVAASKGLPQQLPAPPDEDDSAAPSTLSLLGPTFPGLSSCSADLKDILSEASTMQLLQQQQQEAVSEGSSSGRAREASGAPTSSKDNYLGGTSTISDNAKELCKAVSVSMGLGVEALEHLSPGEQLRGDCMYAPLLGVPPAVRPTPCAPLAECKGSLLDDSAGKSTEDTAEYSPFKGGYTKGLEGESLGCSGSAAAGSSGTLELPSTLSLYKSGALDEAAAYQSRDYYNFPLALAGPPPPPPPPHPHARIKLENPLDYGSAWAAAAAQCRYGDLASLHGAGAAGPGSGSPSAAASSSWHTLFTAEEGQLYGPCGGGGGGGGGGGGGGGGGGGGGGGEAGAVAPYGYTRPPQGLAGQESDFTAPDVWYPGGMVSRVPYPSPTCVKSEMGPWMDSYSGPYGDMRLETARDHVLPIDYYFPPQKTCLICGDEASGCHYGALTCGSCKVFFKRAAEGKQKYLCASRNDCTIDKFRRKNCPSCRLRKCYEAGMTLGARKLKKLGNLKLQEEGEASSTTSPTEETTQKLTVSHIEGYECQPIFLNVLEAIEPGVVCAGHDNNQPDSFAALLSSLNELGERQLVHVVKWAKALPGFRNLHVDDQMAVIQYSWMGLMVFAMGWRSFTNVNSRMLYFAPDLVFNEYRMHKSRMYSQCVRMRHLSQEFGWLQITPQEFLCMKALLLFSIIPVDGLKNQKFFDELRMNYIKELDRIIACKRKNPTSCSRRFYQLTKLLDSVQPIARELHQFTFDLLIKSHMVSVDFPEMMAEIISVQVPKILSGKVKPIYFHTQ
In short: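 Competition binding with lysates of 293 cells overexpressing human AR, [3H]-methyltrienolone tracer, compounds from about 0.01 nM to 10 μM, overnight at 4 °C; non-specific binding set with 500 nM methyltrienolone. Bound tracer counted by scintillation after charcoal-dextran separation; IC50 converted to Ki by Cheng-Prusoff using Kd from saturation binding.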

[2] = biological target: T2, human androgen receptor (AR) (Homo sapiens, UniProt P10275); test: C2C12 AR/ARE reporter assay; assay type: cell-based
T2 construct: expressed in transfected cells; host or cells: mouse myoblast C2C12 cells, transiently co-transfected
T2 sequence (P10275 1-920): T1 sequence (P10275 1-920)
In short: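 Mouse C2C12 myoblasts co-transfected with AR/ARE reporter were plated in charcoal-stripped serum and treated for 48 h with compound from about 0.01 nM to 10 μM. Luciferase activity gave EC50 by 4-parameter logistic fit. Efficacy is expressed as % of maximal stimulation by 10 nM methyltrienolone.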

[3] = C2C12, read-out: C2C12 % Efficacy
[4] = average of n trials, read-out: AR binding Ki
[5] = C2C12 AR/ARE reporter assay, average of n trials, read-out: C2C12 % Efficacy
[6] = C2C12 AR/ARE reporter assay, average of n trials, read-out: C2C12 EC50

Row | Compound | Ki [1] | EC50 [2] | Emax [2, 3] | Ki [1, 4] | Emax [2, 5] | EC50 [2, 6]
1 | COc1ccc2c3c(n(Cc4ccccc4)c2c1)CCC(NC(=O)C(C)C)C3 (stereo not drawn) [Example 77] | 103 nM | 1200 nM | 74.9% |  |  | 
2 | O=Cc1ccc2c(c1)c1c(n2Cc2ccccn2)CCC(NC(=O)C2CC2)C1 (stereo not drawn) [Example 206] | 99.2 nM | 206 nM | 96.1% |  |  | 
3 | CC(C)C(=O)NC1CCc2c(c3cc(C#N)c(F)cc3n2Cc2cccc(F)c2)C1 (stereo not drawn) [Example 115, N-[6-Cyano-7-fluoro-9-(3-fluoro-benzyl)-2,3,4,9-tetrahydro-1H-carbazol-3-yl]-isobutyramide] | 3.2 nM | 4.3 nM | 74.7% |  |  | 
4 | Cc1nc(-c2ccc3c(c2)c2c(n3Cc3cccc(F)c3)CC[C@@H](NC(=O)C(C)C)C2)sc1C [Example 129] | 196 nM | 73.6 nM | 65.5% |  |  | 
5 | CC(C)C(=O)N[C@H]1CCc2c(c3cc(C#N)ccc3n2Cc2ccccc2N)C1 (single isomer, unassigned) [Example 111, S-N-[9-(2-Amino-benzyl)-6-cyano-2,3,4,9-tetrahydro-1H-carbazol-3-yl]-isobutyramide] | 127 nM | 55.2 nM | 111% |  |  | 
6 | CO/N=C/c1ccc2c(c1)c1c(n2Cc2csc(C)n2)CC[C@@H](NC(=O)C(C)C)C1 [Example 212, (R)-N-[6-(Methoxyimino-methyl)-9-(2-methyl-thiazol-4-ylmethyl)-2,3,4,9-tetrahydro-1H-carbazol-3-yl]-isobutyramide] | 16.7 nM | 7.8 nM | 90.4% |  |  | 
7 | CC(C)C(=O)NC1CCc2c(c3cc(Cl)ccc3n2Cc2cccc(Br)c2)C1 (stereo not drawn) [Example 81] | 11.3 nM | 94 nM | 81.9% |  |  | 
8 | CC(C)C(=O)NC1CCc2c(c3cc(-c4ccc(N)nc4)ccc3n2Cc2cccc(F)c2)C1 (stereo not drawn) [Example 142] |  |  |  | 31.8 nM | 61.8% | 23.7 nM
9 | CC(C)C(=O)NC1CCc2c(c3cc(-c4ccc(F)nc4)ccc3n2Cc2cccc(F)c2)C1 (stereo not drawn) [Example 135] |  |  |  | 20.4 nM | 66% | 62.3 nM
10 | CC(C)C(=O)NC1CCc2c(c3cc(C#N)cc(F)c3n2Cc2cccc(F)c2)C1 (stereo not drawn) [Example 121, N-[6-Cyano-8-fluoro-9-(3-fluoro-benzyl)-2,3,4,9-tetrahydro-1H-carbazol-3-yl]-isobutyramide] | 2.9 nM | 6.2 nM | 110% |  |  | 
11 | CC(C)C(=O)NC1CCc2c(c3cc(Cl)ccc3n2Cc2ccccc2[N+](=O)[O-])C1 (stereo not drawn) [Example 104, N-[6-Chloro-9-(2-nitro-benzyl)-2,3,4,9-tetrahydro-1H-carbazol-3-yl]-isobutyramide] |  |  |  | 22.5 nM | 71.6% | 555 nM
12 | CON(C)C(=O)NC1CCc2c(c3cc(C#N)ccc3n2Cc2cccc(F)c2)C1 (stereo not drawn) [Example 180, 3-[6-Cyano-9-(3-fluorobenzyl)-2,3,4,9-tetrahydro-1H-carbazol-3-yl]-1-methoxy-1-methyl-urea] | 4.6 nM | 2.2 nM | 97% |  |  | 
13 | CC(C)C(=O)NC1CCc2c(c3cc(C#N)ccc3n2Cc2cccs2)C1 (stereo not drawn) [Example 158, N-(6-Cyano-9-thiophen-2-ylmethyl-2,3,4,9-tetrahydro-1H-carbazol-3-yl)-isobutyramide] | 3.1 nM | 4.5 nM | 124% |  |  | 
14 | CC(C)C(=O)NC1CCc2c(c3cc([N+](=O)[O-])ccc3n2Cc2cccc(F)c2)C1 (stereo not drawn) [Example 61, N-[9-(3-Fluorobenzyl)-6-nitro-2,3,4,9-tetrahydro-1H-carbazol-3-yl]isobutyramide] | 2.3 nM | 3.6 nM | 83.2% |  |  | 
15 | COc1ccc2c(c1)c1c(n2Cc2ccc(Cl)cc2)CCC(NC(=O)C(C)C)C1 (stereo not drawn) [Example 71] | 82.5 nM | 402 nM | 40.7% |  |  | 
16 | COc1ccc2c(c1)c1c(n2Cc2ccccn2)CCC(NC(=O)C(C)C)C1 (stereo not drawn) [Example 143, N-(6-methoxy-9-pyridin-2-ylmethyl-2,3,4,9-tetrahydro-1H-carbazol-3-yl)-isobutyramide] | 362 nM | 351 nM | 80.3% |  |  | 
17 | CC(C)C(=O)N[C@@H]1CCc2c(c3cc(-c4cccnc4)ccc3n2Cc2cccc(F)c2)C1 [Example 133] | 4.6 nM | 7.5 nM | 66.4% |  |  | 
18 | N#Cc1ccc2c(c1)c1c(n2Cc2cccc(F)c2)CCC(NS(=O)(=O)C2CC2)C1 (stereo not drawn) [Example 177, Cyclopropanesulfonic acid[6-cyano-9-(3-fluoro-benzyl)-2,3,4,9-tetrahydro-1H-carbazol-3-yl)-amide] | 3.8 nM | 102 nM | 75.2% |  |  | 
19 | CC(C)C(=O)NC1CCc2c(c3cc(-c4cnc(N)s4)ccc3n2Cc2cccc(F)c2)C1 (stereo not drawn) [Example 140] | 29 nM | 44 nM | 74.6% |  |  | 
20 | CC(C)C(=O)NC1CCc2c(c3cc(C#N)ccc3n2Cc2ccc(Cl)s2)C1 (stereo not drawn) [Example 148, N-[9-(5-Chloro-thiophen-2-ylmethyl)-6-cyano-2,3,4,9-tetrahydro-1H-carbazol-3-yl]-isobutyramide] |  |  |  | 7.3 nM | 86.7% | 23.8 nM
21 | CC(C)C(=O)NC1CCc2c(c3cc(C#N)ccc3n2Cc2csc(Cl)n2)C1 (stereo not drawn) [Example 153, N-[9-(2-Chloro-thiazol-4-ylmethyl)-6-cyano-2,3,4,9-tetrahydro-1H-carbazol-3-yl]-isobutyramide] | 7.8 nM | 19.3 nM | 93.3% |  |  | 
22 | CN(C)C(=O)NC1CCc2c(c3cc(OC(F)(F)F)ccc3n2Cc2cccc(F)n2)C1 (stereo not drawn) [Example 165] | 14.2 nM | 15.3 nM | 74.6% |  |  | 
23 | COC(=O)N[C@@H]1CCc2c(c3cc(C#N)ccc3n2Cc2cccc(F)n2)C1 [Example 186, (R)-[6-Cyano-9-(6-fluoro-pyridin-2-ylmethyl)-2,3,4,9-tetrahydro-1H-carbazol-3-yl]-carbamic acid methyl ester] | 7.1 nM | 17.4 nM | 103% |  |  | 
24 | CN(C)C(=O)NC1CCc2c(c3cc(Br)ccc3n2Cc2cccc(F)c2)C1 (stereo not drawn) [Example 176, 3-[6-Bromo-9-(3-fluoro-benzyl)-2,3,4,9-tetrahydro-1H-carbazol-3-yl]-1,1-dimethyl-urea] | 7.8 nM | 46 nM | 61.5% |  |  | 
25 | CO/N=C/c1ccc2c(c1)c1c(n2Cc2cccc(F)c2)CCC(NC(=O)C2CC2)C1 (stereo not drawn) [Example 202, Cyclopropanecarboxylic acid[9-(3-fluorobenzyl)-6-(methoxyimino-methyl)-2,3,4,9-tetrahydro-1H-carbazol-3-yl]-amide] | 4.7 nM | 1.5 nM | 90.5% |  |  | 
26 | CC(C)C(=O)N[C@@H]1CCc2c(c3cc(-c4nncs4)ccc3n2Cc2cccc(F)c2)C1 [Example 127, (R)-N-[9-(3-Fluorobenzyl)-6-[1,3,4]thiadiazole-2-yl-2,3,4,9-tetrahydro-1H-carbazol-3-yl]isobutyramide] |  |  |  | 10.4 nM | 72.2% | 21 nM
27 | CC(C)C(=O)NC1CCc2c(c3cc(C#N)ccc3n2Cc2cc(F)cc(F)c2)C1 (stereo not drawn) [Example 89] | 3.3 nM | 1.9 nM | 78.5% |  |  | 
